# Where a name gives a salt, the structure may show the parent alone. Read-outs that look alike come from different tables or passages of the source.
# Legend:
# [1] = test system: ischemia-induced neurological symptoms in SHR SP; assay: Improvement in ischemia-induced neurological symptoms in Spontaneously Hypertensive Rats Stroke Prone (SHR SP) caused by ligation of the bilateral common carotid arteries; type: in vivo, rat (SHR SP); details: 100 mg/kg
# Experimental: The test animals employed were male adult SHR SPs (13 or 15 weeks old). They were used in groups each consisting of about 10 animals. Under halothane anesthesia, both common carotid arteries of each animal were ligated to prepare a brain ischemia model. The halothane anesthesia was stopped immediately after the ligation, and then the time taken to recover the righting reflex, the onset time of convulsions and the survival time were determined. The test solution was prepared in the same manner as described in Experiment 1 and was administered to the animal intraperitoneally 30 minutes before the ligation. A 0.5% CMC solution was administered to the control group in the same manner. The statistical analysis was carried out in a similar manner to that in Experiment 1. The statistical analysis of the survival rate was carried out by the X^2 test.
# [2] = test system: decerebrate rigidity in rats; assay: Suppression of decerebrate rigidity in rats; type: in vivo, rat
# Text: The suppression of decerebrate rigidity in laboratory animals, such as rats, is a well known model for control of human spasticity and/or rigidity.
# In the test method, a rat was anesthetized with halothane and fixed on a stereotaxic apparatus (SR-5, Narishige). In accordance with the brain atlas by Pellegrino et al., [L. J. Pellegrino, A. S. Pellegrino & A. J. Cushman: A Stereotaxic Atlas of the Rat Brain, Plenum Press, New York and London (1967)], an electrode 0.7 mm in diameter, which was insulated except for 1 mm at the tip, was inserted bilaterally into the midbrain reticular formation (AP: 0, L: ±1.5, H: -3.0). A clip serving as the reference electrode was fixed on the temporal muscle. Through these electrodes, a high frequency electric current (100 KHz, 10 to 20 mA) was applied from a lesion generator (Glass Co., LM4A) for 2 to 3 minutes to cauterize electrically this brain region.
# The rat was then immediately set free from the stereotaxic apparatus. A polyethylene cannula was inserted into the duodenum and fixed with an acrylic resin (Aron Alfa, Sankyo Co., Ltd.). After completion of these operations, halothane anesthesia was immediately discontinued.
# After 1.5 hours, when the animal awoke from the anesthesia, the rat was fixed on an apparatus devised in our laboratory for a hind leg fixation. Both hind legs were fixed at the anterior part of the ankle joints. Both hindlimb paws were then pushed in 4 mm for 6 seconds in every minute. The resulting repulsive tension was drawn on a polygraph through a strain gauge.
# The test compounds were suspended in a 0.5% w/v CMC (carboxymethyl cellulose) aqueous solution and were administered orally (p.o.) or intraperitoneally (i.p.).
# The results are summarized in the following Table 7, where the compounds of the present invention are identified by the number of the foregoing Example in which each was prepared, Compound X is the known compound eperisone hydrochloride, and Compound Y is the known compound afloqualone.
# [3] = test system: spinal reflex in cats; assay: Effect on spinal reflex in cats; type: in vivo, cat; details: for Mechanism shown by spinal reflexes: in vivo
# Experimental: Adult cats weighing 3.0 to 4.5 kg each were used. After induction of anesthesia with ether, the animal was anesthetized by intravenous injection of 50 mg/kg of a-chloralose. After the trachea was cannulated, the animal was fixed on a stereotaxic apparatus, and the lumbosacral spinal cord was exposed by laminectomy from L3 to S1. The ventral roots of the right side were cut from L6 to S1 as distal as possible and the cut ends were ligated with cotton thread previously immersed in Ringer's solution. The exposed spinal cord was covered with warmed mineral oil and maintained at 37° C. The ventral root, either L7 or S1, was fixed on a pair of platinum wire electrodes. A pair of collar-type electrodes was implanted on the ipsilateral tibial nerve and the saphenous nerve, for stimulation. After completion of all these operations, the cat was immobilized with pancronium bromide (0.5 mg/kg, i.v.) and maintained by artificial respiration (40/minute). Recording was started at least 2 hours after withdrawal of ether anesthesia. A single square pulse (0.01 to 0.1 msecond pulse width, supramaximal intensity) was applied to the nerve at a frequency of 0.3 Hz from an electronic stimulator. […] In a similar manner to Experiment 2, the blood pressure, heart beat and body temperature of the animal were recorded and monitored. Compounds to be tested were also administered in a similar manner.
# [4] = test system: decerebrate rigidity (cats); assay: Suppression of decerebrate rigidity (cats); type: in vivo, cat
# Text: Adult cats each weight 3.0 to 4.5 kg were used. Under ether anesthesia, the trachea was cannulated and the common carotid arteries were ligated at both sides. The cat was decerebrated by suction at the precollicular level. Ether anesthesia was then immediately discontinued. A pair of needle electrodes was inserted into the neck muscle in order to pick up any EMG muscular discharges. The EMG discharge was amplified and recorded on a pen-writing recorder, along with an integration of the EMG discharge. Recording was started at least 2 hours after withdrawal of anesthesia. Blood pressure induced from the femoral artery, as well as body temperature and heart beat, were recorded and monitored throughout the experiment.
# After stable EMG discharges were obtained, the test compounds suspended in 0.5% CMC solution were administered into the duodenum through a previously inserted cannula. The effect of the test compound was expressed as the ratio of the integrated EMG discharge after administration relative to the value before administration.
# [5] = test system: thiopental anesthesia; assay: Potentiation of thiopental anesthesia (mice); type: in vivo, mouse (ddY strain); details: for Anesthesia time: thiopental 30 mg/kg after one hour
# Experimental: In the test method, male adult mice of ddY strain each weighing 20 to 30 g were used as divided groups each made up of 5 to 7 mice. Test compounds suspended in 0.5% CMC solution were orally administered. After one hour, thiopental (30 mg/kg) was injected into the tail vein, and the time required for the mouse to recover the righting reflex was measured.
# [6] = Rattus norvegicus, ip, 50 mg/kg i.p., read-out: Maximum inhibition
# [7] = Rattus norvegicus, po, 30 mg/kg p.o., read-out: Maximum inhibition
# [8] = Rattus norvegicus, po, 50 mg/kg p.o., read-out: Maximum inhibition
# [9] = Rattus norvegicus, po, 100 mg/kg p.o., read-out: Maximum inhibition
# [10] = 100 mg/kg, administered as in Experiment 2
# [11] = 100 mg/kg, after administration
# [12] = Rattus norvegicus, po, read-out: Maximum inhibition
compound,measurement,setting,value
O=c1c(Cl)c(-c2ccccc2)on1CC(O)CN1CCOCC1 (centres unmarked) [Compound 2a],"Onset time of convulsions and survival time, in words",[1],"prolonged onset time of convulsions, survival time significantly"
same,Duration of the effect,[2]; 30 mg/kg p.o.,> 90 min
same,Onset of the effect,[2]; 30 mg/kg p.o.,5 min
same,Duration of the effect,[2]; 50 mg/kg i.p.,> 120 min
same,Onset of the effect,[2]; 50 mg/kg i.p.,10 min
same,Duration of the effect,[2]; 50 mg/kg p.o.,> 90 min
same,Onset of the effect,[2]; 50 mg/kg p.o.,5 min
same,Duration of the effect,[2]; 100 mg/kg p.o.,> 90 min
same,Onset of the effect,[2]; 100 mg/kg p.o.,5 min
same,inhibition in vivo at 50 mg/kg,[2]; [6],50%
same,inhibition in vivo at 30 mg/kg,[2]; [7],55%
same,inhibition in vivo at 50 mg/kg,[2]; [8],90%
same,inhibition in vivo at 100 mg/kg,[2]; [9],100%
same,Duration of the effect on spinal reflexes,[3]; 100 mg/kg,about 2 hours
same,Monosynaptic reflex,[3]; [10],little affected
same,Polysynaptic reflex,[3]; [10],remarkably inhibited
same,Spino-bulbo-spinal reflex,[3]; [10],remarkably inhibited
same,Onset of the effect on spinal reflexes,[3]; [11],5 min
same,Time of maximum effect on spinal reflexes,[3]; [11],30 min
same,Mechanism shown by spinal reflexes,[3],interneuron blockers
same,Inhibition of decerebrate rigidity,"[4]; 100 mg/kg intraduodenal, 5 minutes after administration",About 30%
same,Inhibition of decerebrate rigidity,"[4]; 100 mg/kg intraduodenal, 1 hour after administration",about 65%
same,Duration of inhibitory effects,"[4]; 100 mg/kg intraduodenal, throughout the observation period",≥ 2 h
same,Side effects and duration of action compared with eperisone hydrochloride,[4]; compared with eperisone hydrochloride,weaker in side effects and of longer action than eperisone hydrochloride
same,Anesthesia time,[5]; 100 mg/kg p.o.,329.1 ± 81.2 s
same,"Drowsiness (the adverse effect), implied",[5]; compared with afloqualone,induce drowsiness (the adverse effect) less than afloqualone
same,"Prolongation of the duration of thiopental-induced anesthesia, in words",[5]; in comparison with eperisone hydrochloride,did not significantly prolong the duration of thiopental-induced anesthesia
Cc1cc(=O)n(CC(O)CN2CCOCC2)o1 (centres unmarked) [Compound 3a],Duration of the effect,[2]; 50 mg/kg i.p.,50 min
same,Onset of the effect,[2]; 50 mg/kg i.p.,5 min
same,inhibition in vivo at 50 mg/kg,[2]; [6],30%
O=c1cc(-c2ccc(Cl)cc2)on1CC(O)CN1CCOCC1 (centres unmarked) [Compound 4a],Duration of the effect,[2]; 50 mg/kg i.p.,> 120 min
same,Onset of the effect,[2]; 50 mg/kg i.p.,5 min
same,inhibition in vivo at 50 mg/kg,[2]; [6],80%
CC(C)NCC(O)Cn1oc(-c2ccccc2)c(Cl)c1=O (centres unmarked) [Compound 5a],Duration of the effect,[2]; 50 mg/kg i.p.,> 120 min
same,Onset of the effect,[2]; 50 mg/kg i.p.,5 min
same,inhibition in vivo at 50 mg/kg,[2]; [6],95%
CC(C)NCC(O)Cn1oc(-c2ccccc2)cc1=O (centres unmarked) [Compound 6a],Duration of the effect,[2]; 50 mg/kg i.p.,60 min
same,Onset of the effect,[2]; 50 mg/kg i.p.,5 min
same,inhibition in vivo at 50 mg/kg,[2]; [6],30%
CC(C)NCC(O)Cn1oc(-c2ccc(Cl)cc2)cc1=O (centres unmarked) [Compound 7a],Duration of the effect,[2]; 50 mg/kg i.p.,60 min
same,Onset of the effect,[2]; 50 mg/kg i.p.,5 min
same,inhibition in vivo at 50 mg/kg,[2]; [6],75%
"CCc1ccc(C(=O)C(C)CN2CCCCC2)cc1 (centres unmarked) [Compound X, eperisone hydrochloride, reference compound]",Duration of the effect,[2]; 10 mg/kg p.o.,> 30 min
same,Onset of the effect,[2]; 10 mg/kg p.o.,10 min
same,Duration of the effect,[2]; 30 mg/kg p.o.,45 min
same,Onset of the effect,[2]; 30 mg/kg p.o.,10 min
same,Duration of the effect,[2]; 50 mg/kg p.o.,30 min
same,Onset of the effect,[2]; 50 mg/kg p.o.,10 min
same,Duration of the effect,[2]; 100 mg/kg p.o.,60 min
same,Onset of the effect,[2]; 100 mg/kg p.o.,5 min
same,inhibition in vivo at 10 mg/kg,"[2]; Rattus norvegicus, po, 10 mg/kg p.o., read-out: Maximum inhibition",30%
same,inhibition in vivo at 30 mg/kg,[2]; [7],30%
same,inhibition in vivo at 50 mg/kg,[2]; [8],50%
same,inhibition in vivo at 100 mg/kg,[2]; [9],50%
same,"Inhibition of decerebrate rigidity, in words",[4]; 50 mg/kg intraduodenal,decerebrate rigidity was inhibited
same,"Side effects (vomiting, changes in blood pressure and heart beat)",[4]; 50 mg/kg intraduodenal,induced vomiting immediately after administration accompanied with abrupt changes in blood pressure and heart beat
same,Time after administration at which decerebrate rigidity returned,[4]; 50 mg/kg intraduodenal,30 min
same,Anesthesia time,[5]; 10 mg/kg p.o.,182.0 ± 9.8 s
same,Anesthesia time,[5]; 30 mg/kg p.o.,192.0 ± 18.3 s
same,Anesthesia time,[5]; 100 mg/kg p.o.,247.0 ± 34.9 s
"Cc1ccccc1-n1c(CF)nc2ccc(N)cc2c1=O [Compound Y, afloqualone, reference compound]",Duration of the effect,[2]; 5 mg/kg p.o.,60 min
same,Onset of the effect,[2]; 5 mg/kg p.o.,10 min
same,Duration of the effect,[2]; 10 mg/kg p.o.,45 min
same,Onset of the effect,[2]; 10 mg/kg p.o.,10 min
same,Duration of the effect,[2]; 30 mg/kg p.o.,120 min
same,Onset of the effect,[2]; 30 mg/kg p.o.,10 min
same,inhibition in vivo at 5 mg/kg,[2]; [12],25%
same,inhibition in vivo at 10 mg/kg,[2]; [12],55%
same,inhibition in vivo at 30 mg/kg,[2]; [12],70%
same,Anesthesia time,[5]; 10 mg/kg p.o.,242.0 ± 10.0 s
same,"Prolongation of the duration of anesthesia, in words",[5]; 30 mg/kg,did significantly prolong the duration of anesthesia
same,Anesthesia time,[5]; 30 mg/kg p.o.,4657.0 ± 636.6 s
"Cc1c(-c2ccccc2)on(CC(O)CN2CCOCC2)c1=O.Cl (centres unmarked) [Example 2, 2-(2-Hydroxy-3-morpholinopropyl)-4-methyl-5-phenyl-3-isoxazolone hydrochloride]",Duration of the effect,[2]; 100 mg/kg i.p.,> 90 min
same,Onset of the effect,[2]; 100 mg/kg i.p.,5 min
same,inhibition in vivo at 100 mg/kg,"[2]; Rattus norvegicus, ip, 100 mg/kg i.p., read-out: Maximum inhibition",60%
"Cc1c(OCC(O)CN2CCOCC2)noc1-c1ccccc1 (centres unmarked) [Example 5, 3-(2-Hydroxy-3-morpholinopropoxy)-4-methyl-5-phenylisoxazole]",Duration of the effect,[2]; 100 mg/kg p.o.,> 90 min
same,Onset of the effect,[2]; 100 mg/kg p.o.,5 min
same,inhibition in vivo at 100 mg/kg,[2]; [9],70%
"NC(=O)OCC(O)Cn1oc2ccc(Cl)cc2c1=O (centres unmarked) [Example 15, 2-(3-Carbamoyloxy-2-hydroxypropyl)-5-chloro-1,2-benzisoxazol-3-one]",Duration of the effect,[2]; 50 mg/kg i.p.,> 60 min
same,Onset of the effect,[2]; 50 mg/kg i.p.,5 min
same,inhibition in vivo at 50 mg/kg,[2]; [6],50%
"NC(=O)OCC(O)COc1ccc(Cl)cc1 (centres unmarked) [chlorphenesin carbamate, reference compound]","Effect on spinal reflexes, compared with Compounds 1a and 2a",[3]; 100 mg/kg,A similar effect was observed
same,Mechanism shown by spinal reflexes,[3],interneuron blockers

# Reference: patent US5321037A, “Isoxazole derivatives for use as cerebro-active drugs and central muscle relaxants” (Sankyo Company, Limited, priority 1986, dated 1994)
